Read-outs that look alike come from different tables or passages of the source.
What was measured:
[1] = molecular target: B. fragilis CfiA metallo-β-lactamase (Bacteroides fragilis, UniProt P25910); assay: I50 screen, nitrocefin reporter substrate; assay type: biochemical; conditions: 25 mM PIPES pH 7, 37° C., nitrocefin 91 μM, 5 minute preincubation, Zn^2+ 100 μM
Procedure: (§1) The inhibitory activity of the compounds of the invention was measured in 25 mM PIPES pH 7 buffer at 10 concentrations (1000, 333, 111, 37, 12.3, 4.1, 1.4 0.46, 0.15 and 0.05 μM) at 37° C. using nitrocefin (91 μM, final concentration) as the reporter substrate. The assays were performed with a 5 minute preincubation of enzyme and inhibitor and were conducted in the presence of added zinc sulphate (Zn^2+ 100 μM, final concentration). The methodology is described in detail in the following references: Payne et al (1991), J. Antimicrob. Chemother., 28:255; Payne et al (1994), Antimicrob. Agents and Chemother., 38:767.

[2] = molecular target: T1, Bacillus cereus II metallo-β-lactamase (Bacillus cereus, UniProt P04190); assay: I50 screen, nitrocefin reporter substrate; assay type: biochemical; conditions: 25 mM PIPES pH 7, 37° C., nitrocefin 91 μM, 5 minute preincubation, Zn^2+ 100 μM
T1 construct: nitrocefin assay with added zinc
T1 sequence (P04190 31-257): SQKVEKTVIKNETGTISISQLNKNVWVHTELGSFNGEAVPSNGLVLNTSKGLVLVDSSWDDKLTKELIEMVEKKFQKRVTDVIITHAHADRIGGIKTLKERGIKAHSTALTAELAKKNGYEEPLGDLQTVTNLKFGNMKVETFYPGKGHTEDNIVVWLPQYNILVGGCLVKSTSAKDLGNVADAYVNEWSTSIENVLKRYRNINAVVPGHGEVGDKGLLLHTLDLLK
Procedure: as §1

[3] = molecular target: T2, Xanthomonas maltophilia L-1 metallo-β-lactamase (Stenotrophomonas maltophilia, UniProt P52700); assay: I50 screen, nitrocefin reporter substrate; assay type: biochemical; conditions: 25 mM PIPES pH 7, 37° C., nitrocefin 91 μM, 5 minute preincubation, Zn^2+ 100 μM
T2 construct: nitrocefin assay with added zinc
T2 sequence (P52700 34-290): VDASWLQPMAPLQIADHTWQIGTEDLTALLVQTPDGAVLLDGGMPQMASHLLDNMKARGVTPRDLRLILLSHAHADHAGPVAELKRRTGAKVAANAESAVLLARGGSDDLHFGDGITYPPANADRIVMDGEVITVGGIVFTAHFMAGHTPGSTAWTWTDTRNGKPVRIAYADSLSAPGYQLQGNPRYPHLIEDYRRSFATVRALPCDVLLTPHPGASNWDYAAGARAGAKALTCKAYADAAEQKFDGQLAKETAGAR
Procedure: as §1

B. fragilis 460 = assay: Antibacterial activity (MIC) alone and in combination with carbapenem antibiotics, B. fragilis 460; assay type: cell-based, Bacteroides fragilis
From the text: (§2) Antibacterial activity of compounds of the invention in combination with carbapenem antibiotics against strains of Bacteroides fragllis which produce metallo-β-lactamase:
(§3) [MIC =minimum inhibitory concentration (μg/ml)]

B. fragilis 262 = assay: Antibacterial activity (MIC) alone and in combination with carbapenem antibiotics, B. fragilis 262; assay type: cell-based, Bacteroides fragilis
From the text: as §2, §3

[4] = read-out: I50 values against B. fragilis CfiA metallo-β-lactamase
[5] = I50 values against B. fragilis CfiA metallo-β-lactamase
[6] = Bacteroides fragilis, alone, B. fragilis 460, CfiA, read-out: MIC alone
[7] = Bacteroides fragilis, alone, B. fragilis 262, CfiA, read-out: MIC alone

B. fragilis CfiA metallo-β-lactamase, sequence (P25910 19-249): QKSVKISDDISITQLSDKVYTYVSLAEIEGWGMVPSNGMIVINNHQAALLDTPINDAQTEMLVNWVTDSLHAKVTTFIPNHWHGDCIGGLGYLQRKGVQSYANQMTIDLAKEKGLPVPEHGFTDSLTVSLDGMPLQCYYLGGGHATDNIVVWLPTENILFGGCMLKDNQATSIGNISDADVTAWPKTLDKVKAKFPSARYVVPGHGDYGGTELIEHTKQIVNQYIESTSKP

IC50 [1, 4] | Structure (SMILES) | other results
< 500 µM | O=C(O)[C@H]1CSCN1C(=O)C(CS)Cc1ccccc1 (single isomer, unassigned) [Example 30, 3-[2'(R or S)-benzyl-3'-mercaptopropionyl]-4(S)-carboxythiazolidine] | –
< 500 µM | O=C(O)[C@H]1CSCN1C(=O)C(CS)Cc1ccccc1 (single isomer, unassigned) [Example 31, 3-[2'(S or R)-benzyl-3'-mercaptopropionyl]-4(S)-carboxythiazolidine] | –
< 500 µM | CC1(C)SCN(C(=O)CCS)[C@H]1C(=O)O [Example 8, 3-[3'-Mercaptopropionyl]-4(S)-carboxy-5,5-dimethylthiazolidine] | –
< 500 µM | CC1(C)SCN(C(=O)C(CS)Cc2ccccc2)[C@@H]1C(=O)O (stereo partly drawn) [Example 12, 3-[2'(RS)-benzyl-3'-mercaptopropionyl]-4(R)-carboxy-5,5-dimethylthiazolidine] | –
< 500 µM | CC(CS)C(=O)N1CSC(C)(C)[C@@H]1C(=O)O (stereo partly drawn) [Example 14, 3-[3'-Mercapto-2'(S)-methylpropionyl]-4(S)-carboxy-5,5-dimethylthiazolidine] | –
< 500 µM | O=C(O)[C@H]1CCCN1C(=O)C(CS)Cc1ccccc1 (stereo partly drawn) [Example 16, N-[2'(PS)-benzyl-3'-mercaptopropionyl]-D-proline] | –
< 500 µM | O=C(O)[C@H]1CSCN1C(=O)C(CS)Cc1ccccc1 (stereo partly drawn) [Example 18, 3-[2'(RS)-benzyl-3'-mercaptopropionyl]-4(S)-carboxythiazolidine] | –
< 1 µM | CC1(C)SCN(C(=O)[C@@H](CS)Cc2ccccc2)[C@H]1C(=O)O [Example 20, 3-[2'(S)-benzyl-3'-mercaptopropionyl]-4(S)-carboxy-5,5-dimethylthiazolidine] | MIC (B. fragilis 460; [6]): > 512 µg/mL; MIC (B. fragilis 262; [7]): > 512 µg/mL
< 500 µM | O=C(O)[C@@H]1CCCN1C(=O)C(CS)Cc1ccccc1 (stereo partly drawn) [Example 25, N-[2'(RS)-benzyl-3'-mercaptopropionyl]-L-proline] | –
< 500 µM | CC1(C)SCN(C(=O)[C@@H](CS)Cc2ccccc2)[C@@H]1C(=O)O [Example 28, 3-[2'(S)-benzyl-3'-mercaptopropionyl]-4(R)-carboxy-5,5-dimethylthiazolidine] | –
< 500 µM | CC1(C)SCN(C(=O)[C@H](CS)Cc2ccccc2)[C@@H]1C(=O)O [Example 29, 3-[2'(R)-benzyl-3'-mercaptopropionyl]-4(R)-carboxy-5,5-dimethylthiazolidine] | –
< 500 µM | CC1(C)SCN(C(=O)C(CS)CCc2ccccc2)[C@H]1C(=O)O (stereo partly drawn) [Example 32, 3-[2'(RS)-mercaptomethyl-4'-phenylbutanoyl]-4(S)-carboxy-5,5-dimethylthiazolidine] | –
< 500 µM | O=C(O)[C@H]1CSCN1C(=O)C(CS)CCCc1ccccc1 (stereo partly drawn) [Example 33, 3-[2'(RS)-mercaptomethyl-5'-phenylpentanoyl]-4(S)-carboxythiazolidine] | –

Continued, compound first:

Structure (SMILES) | IC50 [1, 4] | other results
CC1(C)[C@H](C(=O)O)N(C(=O)[C@@H](CS)Cc2ccccc2)C[S+]1[O-] (single isomer, unassigned) [Example 26] | < 1 µM | –
CC1(C)[C@H](C(=O)O)N(C(=O)[C@@H](CS)Cc2ccccc2)C[S+]1[O-] (single isomer, unassigned) [Example 27] | – | activity against Bacillus cereus II metallo-β-lactamase [2]: weak but significant activity; activity against Xanthomonas maltophilia L-1 metallo-β-lactamase [3]: weak but significant activity
CC1(C)SCN(C(=O)C(CS)Cc2ccccc2)[C@H]1C(=O)O (stereo partly drawn) [Example 2, 3-[2'(RS)-benzyl-3'-mereaptopropionyl]-4(S)-carboxy-5,5-dimethylthiazolidine] | < 1 µM | –
CC(CS)C(=O)N1CCC[C@@H]1C(=O)O (stereo partly drawn) [Example 4, N-[3'-Mercapto-2'(RS)-methylpropionyl]-D-proline] | – | IC50 [1, 5]: < 500 µM
C[C@H](CS)C(=O)N1CCC[C@@H]1C(=O)O [Example 6, N-(3'-mercapto-2'(S)-methylpropionyl)-D-proline] | – | IC50 [1, 5]: < 500 µM
CC1(C)SCN(C(=O)C(CS)Cc2ccccc2)C1C(=O)O [Example 19, 3-[2'(R)-benzyl-3'-mercaptopropionyl]-4(S)-carboxy-5,5-dimethylthiazolidine] | – | activity against Bacillus cereus II metallo-β-lactamase [2]: weak but significant activity; activity against Xanthomonas maltophilia L-1 metallo-β-lactamase [3]: weak but significant activity
CC(CS)C(=O)N1CSC(C)(C)C1C(=O)O [Example 21, 3-[3'-Mercapto-2'(R)-methylpropionyl]-4(S)-carboxy-5,5-dimethylthiazolidine] | – | activity against Bacillus cereus II metallo-β-lactamase [2]: weak but significant activity; activity against Xanthomonas maltophilia L-1 metallo-β-lactamase [3]: weak but significant activity
CC(CS)C(=O)N1CSC(C)(C)C1C(=O)O [Example 23, 3-[Mercapto-2'(S)-methylpropionyl]-4(R)-carboxy-5,5-dimethylthiazolidine] | < 500 µM | –
C[C@@H](O)[C@H]1C(=O)N2C(C(=O)O)=C(SCCN=CN)C[C@H]12 [Imipenem] | – | MIC (B. fragilis 460; [6]): 16 µg/mL; MIC (B. fragilis 262; [7]): 4 µg/mL
C[C@@H](O)[C@H]1C(=O)N2C(C(=O)O)=C(S[C@@H]3CN[C@H](C(=O)N(C)C)C3)[C@H](C)[C@H]12 [Meropenem] | – | MIC (B. fragilis 460; Bacteroides fragilis, 460, read-out: MIC alone): 128 µg/mL; MIC (B. fragilis 262; Bacteroides fragilis, 262, read-out: MIC alone): 128 µg/mL
C[C@H](CS)C(=O)N1CCC[C@H]1C(=O)O [captopril, N-(3'-mercapto-2'(S)-methylpropionyl)-L-proline, reference compound] | – | activity against Bacillus cereus II metallo-β-lactamase [2]: weak but significant activity; activity against Xanthomonas maltophilia L-1 metallo-β-lactamase [3]: weak but significant activity
